According to US10273208B2, “Screening methods for the binding affinity of chemical entities to biological molecules and NEDD4-1 inhibitors identified by the screening methods” (Northwestern University, priority 2014, dated 2019):

Legend:
[1] = target: T1, NEDD4-1 HECT domain (Homo sapiens, UniProt P46934); assay: In vitro ubiquitination assays; type: biochemical; details: NEDD4-1 HECT pretreated with 1 mM compound for 3 h, quenched after 5 min
T1 construct: to elute NEDD4-1 HECT domain (50 mM HEPES, 150 mM NaCl, 0.1 mM EDTA 1 mM DTT); GST (N, cleaved yes); made in house; host or cells: E. coli BL21
T1 sequence (P46934 with tags, fused parts or gaps): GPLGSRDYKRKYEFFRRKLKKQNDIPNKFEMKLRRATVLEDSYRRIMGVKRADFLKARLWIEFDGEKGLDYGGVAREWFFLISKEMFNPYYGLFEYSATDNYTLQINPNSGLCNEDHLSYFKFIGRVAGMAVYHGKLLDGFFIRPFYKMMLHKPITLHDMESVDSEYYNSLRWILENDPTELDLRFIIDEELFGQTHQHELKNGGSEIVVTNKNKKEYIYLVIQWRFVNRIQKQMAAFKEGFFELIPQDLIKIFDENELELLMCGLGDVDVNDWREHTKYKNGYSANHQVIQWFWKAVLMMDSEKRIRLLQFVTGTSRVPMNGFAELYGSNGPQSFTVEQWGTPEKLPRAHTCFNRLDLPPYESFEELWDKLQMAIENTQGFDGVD
Protocol: FIG. 15A, FIG. 15B and FIG. 15C. (FIG. 15A) Enzymatic assay with compounds 1, 2, and 4. NEDD4-1 HECT domain was pretreated with 1% DMSO (lane 1), or 1 mM of compounds 1 (lane 2), 2 (lane 3), or 4 (lane 4) for 3 h before beginning the assay. The reaction mixtures were quenched after 5 min, and polyubiquitin chains were detected by Western blot with anti-ubiquitin antibody. (FIG. 15B) Cartoon depiction of the crystal structure of NEDD4-1:1 with key side chains and the inhibitor shown as spheres. (FIG. 15C) Close-up view of the inhibitor-binding site with the key side chains depicted as sticks and colored by atom type. The 2FO-FC electron density map (mesh, contoured at 1.0 σ) is presented for Cys^627 and 1.
FIG. 16A, FIG. 16B, FIG. 16C and FIG. 16D. (FIG. 16A) and (FIG. 16B) Compound 6 disrupts the NEDD4-1:Ub interaction as shown by a fluorescence polarization assay. Mean±s.e.m., n=3. (FIG. 16C) Compound 6 inhibits the ability of NEDD4-1 to polyubiquitinate the Wbp2-C-K222 protein substrate. NEDD4-1 was pretreated with 1% DMSO (lane 1), or 100 μM of compound 6 (lane 2) or compound 4 (lane 3) for 1.5 h before beginning the assay. Reaction mixtures were quenched at the indicated times and the amount of ubiquitinated Wbp2-C-K222 was determined using in-gel fluorescence. (FIG. 16D) Quantification of polyubiquitin chains in FIG. 16B. Mean±s.e.m., n=2. […]

[2] = NMR rate studies: pseudo-first order reaction with N-acetylcysteine methyl ester; type: physicochemical; details: electrophile 10 mM, N-acetyl cysteine methyl ester 78 mM, 2:1 deuterated PBS:DMSO-d6, pD 8, NMR
From the text: We further validated the utility of electrophile 3 as a thiol-reactive tether by making a library of one hundred structurally diverse drug-like fragments 6-105 containing this electrophile. The library was constructed with an HBTU amide coupling with commercially available carboxylic acid fragments (FIG. 2A). The acids were selected with “rule of three” criteria^15 and a subsequent diversity analysis. We measured the reaction rates for the first fifty fragments to confirm that this library would have balanced cysteine reactivity and could be used for irreversible tethering (FIG. 2B).
N-Acetyl cysteine methyl ester was dissolved in 2:1 deuterated PBS:DMSO-d6 (78 mM) with 10 mM CH2Cl2 as an internal standard. The electrophile (10 mM) was then added immediately prior to acquiring spectra. H1 spectra were taken every 30 s for 30 min (or every 4 s for 5 min for highly reactive compounds 1c and 2a-c). The integrals of the vinyl peaks were used to determine the concentration of the electrophile over time. The natural logarithm of the concentration of the electrophile versus time was then plotted using GraphPad Prism software. The linear slope of this plot was used to determine the pseudofirst order rate constant. Deuterated PBS recipe: 20 mM Na3PO4, 50 mM NaCl in D2O was adjusted to pD 8 with DC1 solution.

[3] = target: T2, papain (Carica papaya, UniProt P00784); assay: Irreversible tethering screening assay (whole protein ESI-MS) against papain; type: binding
T2 construct: purchased Sigma P4762
T2 sequence (P00784 134-345): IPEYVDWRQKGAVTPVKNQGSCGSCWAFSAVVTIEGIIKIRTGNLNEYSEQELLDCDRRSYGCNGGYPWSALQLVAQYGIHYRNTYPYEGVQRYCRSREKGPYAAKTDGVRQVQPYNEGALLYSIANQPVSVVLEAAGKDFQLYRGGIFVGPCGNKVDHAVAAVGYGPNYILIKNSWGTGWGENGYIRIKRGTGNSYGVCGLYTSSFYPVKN
Protocol: Papain (10 μM) was incubated for one hour with ten reaction mixtures that each contained ten electrophilic fragments (100 μM each) (Table S2).
Hits were defined as any compounds which labeled papain more than 50%. […] Such selectivity is impressive, given a 9-fold excess of other cysteine reactive electrophiles over compounds 6, 7, and 8. […] This is despite the fact that these reaction mixtures contain a 100-fold excess of cysteine reactive electrophiles relative to the highly reactive catalytic cysteine of papain. […]
10 μM of papain (Sigma P4762), UbcH7 (recombinantly expressed) or USPO8 (recombinantly expressed) in 50 mM HEPES 150 mM NaCl 0.1 mM EDTA pH 7.5 was treated with a mixture of ten fragments (Table S2) (10 mM DMSO stock solutions, final concentrations: 100 μM of each fragment, and 1% DMSO). […] The protein solution was then immediately analyzed by whole protein LC/ESI-MS. […]
200 μL of papain and compound 6-8 adducts were prepared separately as described above in “irreversible tethering screening assay” by incubating papain (10 μM) with 100 μM of compounds 6-8 in 1% DMSO 50 mM HEPES 150 mM NaCl 0.1 mM EDTA pH 7.5. […] The cassettes were dialyzed against 500 mL of 50 mM HEPES 150 Mm NaCl 0.1 mM EDTA pH 7.5 for 16 h, then 20 μL were extracted and analyzed by ESI-MS. […]

[4] = target: T2, papain; assay: Papain activity assay (Cbz-Gly-ONp, kinact/KI); type: biochemical
Protocol: We subsequently tested compounds 6-8 in an enzymatic assay to confirm that they inhibited papain in the concentration and time dependent manner that is characteristic of irreversible inhibitors.^18 Using assay conditions previously described for papain,^17 we determined kinact/K1 values for compounds 6-8 (FIGS. 4 and 10).
Papain (4.8 μM) in 50 mM Na3PO4 2 mM EDTA was preactivated with 1 mM DTT for 30 min. Activated papain (3.84 μM) in 4:1 mixture of 50 mM Na3PO4, 2 mM EDTA at pH 6.2 and acetronitrile was then preincubated for 1 h with varying concentrations of the electrophilic fragment. Every 10 min, 10 μL of the reaction mixture was added to a well of 96-well plate containing 100 μL of 4:1 50 mM Na3PO4 2 mM EDTA pH 6.2:acetronitrile with 400 μM Cbz-Gly-ONp. p-Nitrophenol product formation was monitored by absorbance at 340 nm (£: 6800 M-1 cm-1) with a Biotek Synergy 4 plate reader. All reactions were performed in duplicate. Product concentration versus time was plotted with GraphPad Prism software and the initial slope was calculated to determine enzymatic activity (E). The values of kinact/KI for each inhibitor were then determined according to the method of Kitz and Wilson.23 Briefly, the slopes of the plots of ln(100*Einhibited/Euninhibited) vs. time were used to determine the pseudo-first order inhibition constant kobs for a given concentration of a given inhibitor. […]

[5] = target: T3, human rhinovirus 3C protease (GST-HRV3C, PreScission protease) (Human rhinovirus 14, UniProt P03303); assay: Irreversible tethering counter-screen (ESI-MS) against HRV3C protease; type: binding; details: mixtures of ten fragments 100 μM each, 1 h
T3 construct: made in house; host or cells: E. coli Rosetta (DE3)pLysS
T3 sequence (P03303 1538-1719, added parts left off): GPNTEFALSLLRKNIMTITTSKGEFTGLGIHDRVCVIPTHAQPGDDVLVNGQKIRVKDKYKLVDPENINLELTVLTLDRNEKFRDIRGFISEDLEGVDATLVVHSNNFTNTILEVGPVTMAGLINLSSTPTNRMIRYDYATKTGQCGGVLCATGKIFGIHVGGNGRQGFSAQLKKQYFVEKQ
Protocol: FIG. 28A, FIG. 28B, FIG. 28C and FIG. 28D. Counterscreen of compound 6 against the deubiquitinase USPO8 and Human Rhinovirus (HRV) 3C protease, both of which have catalytic cysteines. Compound 6 at 100 μM in 1% DMSO was incubated with the catalytic domain of the indicated cysteine protease (10 μM) for 1 h, followed by gel filtration and whole protein ESI-MS.
To further test the specificity of the developed irreversible tethering system, we conducted a counter-screen of the same set of 100 compounds (10 mixtures of 10 compounds each) against three other enzymes: human rhinovirus 3C protease, the deubiquitinase USP08, and the E2 ubiquitin-conjugating enzyme UbcH7. […] The molecular weight of GST-HRV3C protease is 47566.72 Da and its amino acid sequence is provided as (SEQ ID NO:2).
10 μM of papain (Sigma P4762), UbcH7 (recombinantly expressed) or USPO8 (recombinantly expressed) in 50 mM HEPES 150 mM NaCl 0.1 mM EDTA pH 7.5 was treated with a mixture of ten fragments (Table S2) (10 mM DMSO stock solutions, final concentrations: 100 μM of each fragment, and 1% DMSO). The reaction mixture was incubated for 1 h or 4 h at 23° C. before being passed through Zeba gel filtration columns (Thermo, 7K MWCO) to remove unreacted fragments. The protein solution was then immediately analyzed by whole protein LC/ESI-MS.
Accurate-mass data were obtained on an Agilent 6210A LC-TOF mass spectrometer in positive ion mode using electrospray ionization. Samples were chromatographed on the LC-TOF instrument using a Poroshell 120 EC-C18 HPLC column (2.1*50 mm, 2.7 micron), an Agilent Series 1200 HPLC binary pump, and an Agilent Series 1200 autoinjector. The HPLC column was held at 45° C. and the autosampler was held at 8° C. Mobile Phase A was a solution of 0.1% formic acid in water:acetonitrile (19:1). Mobile Phase B was a solution of 0.1% formic acid in acetonitrile. The flow rate was set to 250 μL/min. The gradient used was 0% B for 2 minutes, ramping linearly to 90% B from 2 minutes to 5 minutes, holding at 90% B from 5 minutes to 7 minutes, and then returning to 0% B at 7.1 minutes. […]

| Structure (SMILES) | k pseudo-first order [2] [s⁻¹] | labeling of HRV3C protease [5] [%] | other results |
| --- | --- | --- | --- |
| COC(=O)/C=C/CNC(=O)c1c[nH]nc1-c1cccc(F)c1 [Compound 4, Methyl(E)-4-(3-(3-fluorophenyl)-1H-pyrazole-4-carboxamido)but-2-enoate] |  |  | polyubiquitin chain assembly by NEDD4-1 (anti-ubiquitin Western blot) [1]: did not affect NEDD4-1 activity |
| COC(=O)/C=C/CNC(=O)c1ccc(C2CCCO2)s1 (stereo not shown) [Compound 19] | 0.0004396 |  | covalent labeling of papain ([3]; papain 10 μM, mixtures of ten fragments 100 μM each, 1 h, hit = labeled papain more than 50%): did not label papain; fold less potent at inhibiting papain than the least potent inhibitor 6 [4]: ~10 fold; fold less potent at inhibiting papain than the most potent inhibitor 7 [4]: ~33 fold |
| COC(=O)/C=C/CNC(=O)c1csc(-c2cccs2)n1 [Compound 22] | 0.0007605 | ~35 |  |
| COC(=O)/C=C/CNC(=O)c1ccc2ccccc2n1 [Compound 32] | 0.0006296 | ~20 |  |
| COC(=O)/C=C/CNC(=O)[C@H](Cc1ccccc1)NC(C)=O [Compound 106, reference compound] |  |  | effect of pretreatment of papain on subsequent labeling by compounds 6-8 ([3]; 100 μM 106 for 1 h, then 100 μM of 6, 7 or 8): blocked subsequent labeling by compounds 6-8 |
